In patent publication US20240209014A1, “NOVEL SPINOSYN PRODRUGS” (Acies Bio d.o.o., priority 2021, published 2024):
Values after ≈ are worked out from the molar mass of the structure shown. Read-outs that look alike come from different tables or passages of the source.

Assays:
[1] = test system: honey bees (Apis melifera carnica, Pollman 1879); assay: Single dose acute oral toxicity test on adult worker honey bees; format: in vivo
Protocol: Toxicity of the compounds of this invention towards honey bees (Apis melifera carnica, Pollman 1879) was assessed in comparison with commercially available samples of spinosad (LGC (Dr. Ehrenstorfer); Product code: DRE-C16972830) and the naturally produced compound butenyl spinosyn alpha 1. Solutions of spinosyn compounds were prepared in 100 mM ammonium acetate, pH=5, and later diluted in 50% (500 g/L) sucrose solution in water to final concentrations. Two final concentrations were used for each compound, 7.76 μmol/L and 15.53 μmol/L.
Single dose acute oral toxicity tests were conducted on adult worker bees according to previously described standard methods (Medrzycki at el., (2013)). Each compound and condition were tested in two parallels. Briefly, each parallel experiment consisted of 5 cages with 20 honey bees per cage. […] After uptake of the solutions honey bees were supplied with standard 50% sucrose solution and observed at 24 h and 48 h and the number of dead and live bees was estimated.
Ammonium acetate solution with pH 5 was used as the negative control.

Kinetic solubility assay = format: physicochemical; conditions: dose conc 200 μM, 25±2° C.
Protocol: Solubility of the compounds of the invention was assessed using kinetic solubility assay and compared to solubility of butenyl spinosyn. Stock solutions of spinosyn compounds were prepared in DMSO at mM concentration). 10 uL of the stock solutions were added into 490 of in K.S. 5.4 buffer of pH 5.4 (80 mM phosphoric acid, acetic acid, boric acid buffer, adjusted the pH to pH 5.4 with 1 N HCl and 1N NaOH) or K.S. 7.4 buffer with pH of 7.4 (80 mM phosphoric acid, acetic acid, boric acid buffer, adjusted the pH to pH 7.4 with 1 N HCl and 1N NaOH). The solutions were incubated with shaking at room […] temperature (25±2° C.) for 24 hours. 200 uL of each solution were then transferred into a new MultiScreen filter plate (Membrane of polycarbonate) and filtered by millipore vacuum manifold, and the filtrate was collected. The concentrtions of tested compounds in the filtered samples were analyzed by HPLC analysis calibrated by a standard curve generated by injection of 3 standard solutions of the relevant compound with concentrations of 1, 20, 200 μM.

[2] = Stability of J1Aa and J7a at different pH values (LC-MS); format: physicochemical
Protocol: Stability of compounds J1Aa and J7a was evaluated at different pH values. Differential stability/conversion to the active ingredient is expected to result in condition-specific activation and thereby to higher specificity towards target pests.
Stock solutions of the compounds were prepared at concentration of 0.1 mol/L. 10 μL of the stock solutions were transferred to 0.75 ml of the buffer solutions with pH values of 4, 5, 9 and 11. […] After specified times samples were analyzed using LC-MS. The compounds J1Aa and J7a and the active compound spinosyn A were quantified. It is seen that the two compounds are converted to the active form preferably in alkaline conditions.

[3] = test system: larvae of Ostrinia nubilialis (development stage L1); assay: Insecticide efficacy, corn leaf dip, Henderson-Tilton method; format: in vivo
Protocol: Insecticide activities of the compounds of this invention were assessed in comparison with commercially available samples of spinosad (LGC (Dr. Ehrenstorfer); Product code: DRE-C16972830) and spinetoram (LGC (Dr. Ehrenstorfer); Product code: DRE-C16972770). Solutions of spinosyn compounds were prepared by adding 0.05% Tween 80, lowering pH to 5.95 and sonicating. Two concentrations of each compound were used, 0.1 μg/ml and 0.3 μg/mL, with each condition tested in four parallels.
Freshly collected corn leaves were dipped into the prepared solutions. After dipping leaves were left to dry at room temperature for 1 hour. Each dry leaf was then infested with 4 larvae of Ostrinia nubilialis (development stage L1), and the experimental device was incubated at 21° C.-23° C. for 24 h in order to optimize insect development. At three timings post infestation (1 day, 3 days and 6 days), the insecticide efficacy is evaluated from the number of living larvae using the Henderson-Tilton method. Untreated control was integrated for normalization and validation of larvae health.

[4] = single oral dose 0.078 nmol/bee, 24 h after application
[5] = single oral dose 0.078 nmol/bee, 48 h after application
[6] = single oral dose 0.155 nmol/bee, 24 h after application
[7] = single oral dose 0.155 nmol/bee, 48 h after application

CC/C=C/[C@H]1CCC[C@H](OC2CCC(N(C)C)C(C)O2)[C@@H](C)C(=O)C2=C[C@@H]3[C@@H](C=C[C@@H]4C[C@@H](OC5OC(C)C(OC)C(OC)C5OC)C[C@@H]34)[C@@H]2CC(=O)O1 (stereo partly drawn) [butenyl spinosyn, Butenyl spinosyn α1, reference compound]
toxicity to honey bees compared to corresponding derivatives (in words) ([1]; acute oral toxicity test): higher toxicity to honey bees | % of surviving honey bees [1, 4]: 73% | % of surviving honey bees [1, 5]: 53% | % of surviving honey bees [1, 6]: 42% | % of surviving honey bees [1, 7]: 18% | solubility kinetic at 24 h (Kinetic solubility assay; K.S. 5.4 buffer, read-out: Kinetic Solubility pH = 5.4): 183.17 µM (≈ 139 µg/mL) | solubility kinetic at 24 h (Kinetic solubility assay; K.S. 7.4 buffer, read-out: Kinetic Solubility pH = 7.4): 3.52 µM (≈ 2.67 µg/mL)

CC[C@H]1CCC[C@H](OC2CCC([N+](C)(C)COC(=O)OC(C)C)C(C)O2)[C@@H](C)C(=O)C2=C[C@@H]3[C@@H](C=C[C@@H]4C[C@@H](OC5OC(C)C(OC)C(OC)C5OC)C[C@@H]34)[C@@H]2CC(=O)O1 (stereo partly drawn) [Compound J7a]
% of surviving honey bees [1, 4]: 96% | % of surviving honey bees [1, 5]: 88% | % of surviving honey bees [1, 6]: 97% | % of surviving honey bees [1, 7]: 68% | Compound (J1Aa/J7a) Area % remaining ([2]; buffer pH 4, 0.16 h): 92.1% | SPN Area % (active spinosyn A released) ([2]; buffer pH 4, 0.16 h): 7.9% | Compound (J1Aa/J7a) Area % remaining ([2]; buffer pH 4, 6 h): 91.6% | SPN Area % (active spinosyn A released) ([2]; buffer pH 4, 6 h): 8.4% | Compound (J1Aa/J7a) Area % remaining ([2]; buffer pH 4, 12 h): 91.3% | SPN Area % (active spinosyn A released) ([2]; buffer pH 4, 12 h): 8.7% | Compound (J1Aa/J7a) Area % remaining ([2]; buffer pH 4, 24 h): 90.7% | SPN Area % (active spinosyn A released) ([2]; buffer pH 4, 24 h): 9.3% | Compound (J1Aa/J7a) Area % remaining ([2]; buffer pH 5, 0.16 h): 91.8% | SPN Area % (active spinosyn A released) ([2]; buffer pH 5, 0.16 h): 8.2% | Compound (J1Aa/J7a) Area % remaining ([2]; buffer pH 5, 6 h): 90.9% | SPN Area % (active spinosyn A released) ([2]; buffer pH 5, 6 h): 9.1% | Compound (J1Aa/J7a) Area % remaining ([2]; buffer pH 5, 12 h): 90.3% | SPN Area % (active spinosyn A released) ([2]; buffer pH 5, 12 h): 9.7% | Compound (J1Aa/J7a) Area % remaining ([2]; buffer pH 5, 24 h): 89.0% | SPN Area % (active spinosyn A released) ([2]; buffer pH 5, 24 h): 11.0% | Compound (J1Aa/J7a) Area % remaining ([2]; buffer pH 9, 0.16 h): 44.4% | SPN Area % (active spinosyn A released) ([2]; buffer pH 9, 0.16 h): 55.6% | Compound (J1Aa/J7a) Area % remaining ([2]; buffer pH 9, 6 h): 0.0% | SPN Area % (active spinosyn A released) ([2]; buffer pH 9, 6 h): 100.0% | Compound (J1Aa/J7a) Area % remaining ([2]; buffer pH 11, 0.16 h): 0.1% | SPN Area % (active spinosyn A released) ([2]; buffer pH 11, 0.16 h): 99.9%

spinetoram [Spinoteram, reference compound]
% Efficacy ([3]; dose 0.1 μg a.i./ml, 1 day post infestation): 27% | % Efficacy ([3]; dose 0.1 μg a.i./ml, 3 days post infestation): 60% | % Efficacy ([3]; dose 0.1 μg a.i./ml, 6 days post infestation): 85% | % Efficacy ([3]; dose 0.3 μg a.i./ml, 1 day post infestation): 31% | % Efficacy ([3]; dose 0.3 μg a.i./ml, 3 days post infestation): 86% | % Efficacy ([3]; dose 0.3 μg a.i./ml, 6 days post infestation): 97%
